US20230279018A1, “AP[…] INHIBITION” (priority 2020, published 2023)

Key:
PfcFRS = target: T1, PfcFRS (Plasmodium falciparum, UniProt Q8I246); assay: Surface Plasmon Resonance binding, PfcFRS; settings: SPR, 25° C., PBS pH 7.4, 5% DMSO; read-out: cFRS Kd, Pf
T1 sequence (Q8I246 1-575): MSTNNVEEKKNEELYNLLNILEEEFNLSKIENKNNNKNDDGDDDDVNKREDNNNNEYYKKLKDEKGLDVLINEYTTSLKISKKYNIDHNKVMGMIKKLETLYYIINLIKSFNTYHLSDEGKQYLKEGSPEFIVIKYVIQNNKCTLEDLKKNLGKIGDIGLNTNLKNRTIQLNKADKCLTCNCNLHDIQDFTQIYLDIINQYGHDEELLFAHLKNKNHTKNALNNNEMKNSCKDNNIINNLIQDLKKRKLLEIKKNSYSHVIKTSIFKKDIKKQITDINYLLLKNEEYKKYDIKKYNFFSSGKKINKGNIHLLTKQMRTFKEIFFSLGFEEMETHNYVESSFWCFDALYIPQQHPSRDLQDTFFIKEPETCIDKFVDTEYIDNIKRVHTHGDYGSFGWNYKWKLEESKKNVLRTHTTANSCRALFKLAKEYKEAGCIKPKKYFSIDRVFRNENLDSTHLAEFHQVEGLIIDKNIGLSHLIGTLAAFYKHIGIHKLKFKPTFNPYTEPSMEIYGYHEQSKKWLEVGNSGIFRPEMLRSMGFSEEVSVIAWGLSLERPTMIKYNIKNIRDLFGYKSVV
T1 sequence (Q8IIW2 1-623 partner): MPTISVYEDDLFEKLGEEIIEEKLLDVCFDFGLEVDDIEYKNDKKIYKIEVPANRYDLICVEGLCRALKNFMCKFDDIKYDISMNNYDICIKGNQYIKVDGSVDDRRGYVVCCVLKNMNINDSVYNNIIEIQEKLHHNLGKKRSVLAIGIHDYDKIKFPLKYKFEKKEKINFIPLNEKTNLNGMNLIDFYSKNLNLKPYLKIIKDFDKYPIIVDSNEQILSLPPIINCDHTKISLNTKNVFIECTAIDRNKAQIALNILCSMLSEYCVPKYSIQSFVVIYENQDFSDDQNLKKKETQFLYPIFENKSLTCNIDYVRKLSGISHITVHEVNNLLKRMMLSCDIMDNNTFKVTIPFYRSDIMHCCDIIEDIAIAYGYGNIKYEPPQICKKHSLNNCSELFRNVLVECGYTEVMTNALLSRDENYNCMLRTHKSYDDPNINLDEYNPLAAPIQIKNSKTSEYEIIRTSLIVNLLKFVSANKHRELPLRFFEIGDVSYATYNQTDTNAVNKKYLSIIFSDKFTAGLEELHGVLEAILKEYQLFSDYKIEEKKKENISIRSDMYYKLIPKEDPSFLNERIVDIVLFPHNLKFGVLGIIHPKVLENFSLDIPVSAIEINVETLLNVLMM
Protocol: Surface Plasmon Resonance experiments to evaluate the binding of Compound 1 to proteins were carried out on a Biacore T200 instrument (GE Healthcare) at 25° C. The binding experiments were performed in buffer 10 mM phosphate buffered saline (PBS), pH 7.4, containing 5% dimethyl sulfoxide (DMSO). The flow system was primed with the running buffer before the initiation of the experiment. Both PfcFRS and HscFRS were immobilized to Sensor Chip CM5 by standard amine coupling chemistry using N-hydroxysuccinimide (NHS) and ethyl(dimethylaminopropyl) carbodiimide (EDC), to an immobilization level of approximately 1500 RU. The binding experiments were carried out in a single cycle kinetics mode. Compound 1 was serially diluted in running buffer, and injected at a flow rate of 60 μl min^−1 across both surface for 60 s and dissociation were set up for 120 s. The analysis was done using Biaevaluation (GE Healthcare) and GraphPad Prism 7 software (GraphPad Software Inc, USA). […] The equilibrium dissociation constants (Kd) were determined by plotting the measured response (Req) as a function of the analyte concentration. […] Measured sensograms illustrating the binding of various concentrations of Compound 1 to the protein are shown in FIG. 3B (PfcFRS) and 3C (HscFRS) including both the measured data and the 1:1 binding model fit.

Pf-Mut (L550V) cFRS = target: T2, Pf-Mut (L550V) cFRS (Plasmodium falciparum, UniProt Q8I246, L550V); assay: malachite green-based aminoacylation assay, Pf-Mut (L550V) cFRS; assay type: biochemical; settings: aminoacylation activity; read-out: cFRS IC50, Pf mutant (L550V)
T2 sequence (Q8I246 1-575 L550V): T1 sequence (Q8I246 1-575)
T2 sequence (Q8IIW2 1-623 partner): T1 sequence (Q8IIW2 1-623 partner)
Description: EC50 assays were run as described in Int'l Pub Nos. WO 2015070204, WO 2018175385, and Kato, N, et al. Nature 538 (2016): 344-349, which are hereby incorporated by reference in its entirety. The inhibition of the aminoacylation activity of Pf (Plasmodium falciparum), Pv (Plasmodium vivax), Hs (Human) and Pf-Mut (L550V) cFRS enzymes by Compound 1 are illustrated in FIG. 1.
The enzymatic activity of purified heterodimeric PfcFRS using malachite green-based aminoacylation assays with substrates L-Phe and ATP was also measured as described in Cestari, I. et al., J Biomol. Screen. 18 (2013): 490-497 and Kato, N, et al. Nature 538 (2016): 344-349, which are hereby incorporated by reference in its entirety. […] Enzymatic reactions (50 μl total volume) were performed in clear, flat-bottomed, 96-well plates (Costar 96-well standard microplates). The reaction mixture was incubated for 2 h at 37° C. The reaction was stopped by adding 12.5 μl of malachite green solution to the reaction mixture and levels of inorganic phosphate (Pi) were detected after incubation of 5 min at room temperature. Absorbance was the measured at 620 nm using a Spectramax M2 (Molecular Devices). Reactions without FRS enzyme were performed as background controls, values of which were subtracted from the reactions with enzyme. […]

SMILES: COC[C@@H]1[C@H](c2ccc(C#Cc3ccccc3)cc2)[C@@H]2CN(C(=O)Nc3ccc(OC4CC4)cc3)C[C@@H](O)[C@@H](O)CN12 [Compound 1, (3S,4R,8R,9R,10S)—N-(4-cyclopropoxyphenyl)-3,4-dihydroxy-10-(methoxymethyl)-9-(4-(phenylethynyl)phenyl)-1,6-diazabicyclo[6.2.0]decane-6-carboxamide]
- Kd (PfcFRS): 4 nM
- IC50 (Pf-Mut (L550V) cFRS): 1000 nM
